Measurements published in patent US20260314598A1, “THE USE OF FLORPYRAUXIFEN-BENZYL AS A SOYBEAN HARVEST AID” (CORTEVA AGRISCIENCE LLC, priority 2022, published 2026).

Tested on: soybean plants
Assay: Field trial of soybean pre-harvest desiccation: visual defoliation after a single spray
Type: in vivo
Settings: for Percentage of defoliation (raw data): single application at R7.2, 100 L/ha spray; for Percentage of defoliation (Abbot's formula): single application at R7.2, adjusted to untreated
Procedure: Field trials were carried out to test the soybean desiccation efficacy of florpyrauxifen-benzyl at 5, 7.5, 10, 15 and 20 g a.i./ha. Soybean plants were sprayed at the R7.2 soybean growth stage.
[…] Herbicides were diluted in water and a single application for each rate (backpack sprayer) was performed employing 100 L/ha of spray solution. The percentage of visual defoliation was assessed at 3, 7 and 10 days after spray application. The significance of treatment effects was evaluated with F-approximate test (α=0.05) and least square means from different treatments were compared with Tukey's test, after adjusting the % defoliation using Abbott's formula (Abbott, W. S., 1925. A method of computing the effectiveness of an insecticide. J. Econ. Entomol. 18:265-267).

[1] = 3 DAA, 370 g ai/ha, untreated 74.4
[2] = 10 DAA, 370 g ai/ha, untreated 89.8

CP(=O)(O)CCC(N)C(=O)O (centres unmarked) [Ammonium glufosinate, ammonium-glufosinate]
Percentage of defoliation (raw data) [1]: 84.9% | Percentage of defoliation (Abbot's formula) (3 DAA, 370 g ai/ha): 16.4% | Percentage of defoliation (raw data) (7 DAA, 370 g ai/ha): 93.9% | Percentage of defoliation (Abbot's formula) (7 DAA, 370 g ai/ha): 13.9% | Percentage of defoliation (raw data) [2]: 98.1% | Percentage of defoliation (Abbot's formula) (10 DAA, 370 g ai/ha): 10.8%

COc1c(Cl)ccc(-c2nc(C(=O)OCc3ccccc3)c(Cl)c(N)c2F)c1F [Florpyrauxifen-benzyl, florpyrauxifen-benzyl]
Percentage of defoliation (raw data) (3 DAA, 5 g ai/ha, untreated 74.4): 78.8% | Percentage of defoliation (Abbot's formula) (3 DAA, 5 g ai/ha): 7.4% | Percentage of defoliation (raw data) (3 DAA, 7.5 g ai/ha, untreated 74.4): 80.8% | Percentage of defoliation (Abbot's formula) (3 DAA, 7.5 g ai/ha): 10.0% | Percentage of defoliation (raw data) (3 DAA, 10 g ai/ha, untreated 74.4): 81.3% | Percentage of defoliation (Abbot's formula) (3 DAA, 10 g ai/ha): 10.7% | Percentage of defoliation (raw data) (3 DAA, 15 g ai/ha, untreated 74.4): 82.4% | Percentage of defoliation (Abbot's formula) (3 DAA, 15 g ai/ha): 12.3% | Percentage of defoliation (raw data) (3 DAA, 20 g ai/ha, untreated 74.4): 84.3% | Percentage of defoliation (Abbot's formula) (3 DAA, 20 g ai/ha): 15.3% | Percentage of defoliation (raw data) (7 DAA, 5 g ai/ha): 89.3% | Percentage of defoliation (Abbot's formula) (7 DAA, 5 g ai/ha): 7.8% | Percentage of defoliation (raw data) (7 DAA, 7.5 g ai/ha): 90.8% | Percentage of defoliation (Abbot's formula) (7 DAA, 7.5 g ai/ha): 9.6% | Percentage of defoliation (raw data) (7 DAA, 10 g ai/ha): 91.4% | Percentage of defoliation (Abbot's formula) (7 DAA, 10 g ai/ha): 10.4% | Percentage of defoliation (raw data) (7 DAA, 15 g ai/ha): 93.0% | Percentage of defoliation (Abbot's formula) (7 DAA, 15 g ai/ha): 12.7% | Percentage of defoliation (raw data) (7 DAA, 20 g ai/ha): 94.5% | Percentage of defoliation (Abbot's formula) (7 DAA, 20 g ai/ha): 14.7% | percentage of defoliation compared to untreated plants, versus standards (7 DAA, rate not restated (15 and 20 g ai/ha in preceding sentence), Tukey's test): statistically equivalent to both ammonium-glufosinate and diquat | Percentage of defoliation (raw data) (10 DAA, 5 g ai/ha, untreated 89.8): 97.1% | Percentage of defoliation (Abbot's formula) (10 DAA, 5 g ai/ha): 9.5% | Percentage of defoliation (raw data) (10 DAA, 7.5 g ai/ha, untreated 89.8): 97.9% | Percentage of defoliation (Abbot's formula) (10 DAA, 7.5 g ai/ha): 10.4% | Percentage of defoliation (raw data) (10 DAA, 10 g ai/ha, untreated 89.8): 97.9% | Percentage of defoliation (Abbot's formula) (10 DAA, 10 g ai/ha): 10.5% | Percentage of defoliation (raw data) (10 DAA, 15 g ai/ha, untreated 89.8): 98.6% | Percentage of defoliation (Abbot's formula) (10 DAA, 15 g ai/ha): 11.3% | Percentage of defoliation (raw data) (10 DAA, 20 g ai/ha, untreated 89.8): 99.1% | Percentage of defoliation (Abbot's formula) (10 DAA, 20 g ai/ha): 11.9% | percentage of defoliation compared to untreated plants, versus standard (15 and 20 g ai/ha, 3 DAA, F-approximate test (α=0.05), Tukey's test): statistically equivalent to ammonium-glufosinate

c1cc[n+]2c(c1)-c1cccc[n+]1CC2 [Diquat, diquat]
Percentage of defoliation (raw data) [1]: 95.7% | Percentage of defoliation (Abbot's formula) (3 DAA, 370 g ai/ha): 31.7% | Percentage of defoliation (raw data) (7 DAA, 370 g ai/ha): 98.9% | Percentage of defoliation (Abbot's formula) (7 DAA, 370 g ai/ha): 20.5% | Percentage of defoliation (raw data) [2]: 99.8% | Percentage of defoliation (Abbot's formula) (10 DAA, 370 g ai/ha): 12.9%
